In patent publication EP2676962A1, “Derivatives of 1-aminoalkylphosphonate diaryl esters, method of 1-aminoalkylphosphonate diaryl ester derivatives preparation and their application” (priority 2012, dated 2013):
Like-named read-outs stand apart in the source and are kept apart here.

How the values were obtained:
Assay type in all cases: biochemical
[1] = molecular target: porcine pancreatic elastase (PPE) (Sus scrofa, UniProt P00772); test: Inhibitory activity toward porcine pancreatic elastase, fluorogenic substrate, microplate reader
porcine pancreatic elastase (PPE), sequence (P00772 27-266): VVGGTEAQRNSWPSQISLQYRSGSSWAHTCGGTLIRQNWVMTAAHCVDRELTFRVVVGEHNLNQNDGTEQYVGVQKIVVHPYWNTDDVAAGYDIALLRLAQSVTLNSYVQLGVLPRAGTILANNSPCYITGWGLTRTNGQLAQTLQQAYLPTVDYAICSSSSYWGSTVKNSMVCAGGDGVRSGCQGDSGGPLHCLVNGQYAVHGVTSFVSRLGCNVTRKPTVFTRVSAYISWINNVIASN
Experimental: (§1) The biological activity of peptidyl derivatives of phosphonic analogs of valine, alanine, phenylalanine, 4-guanidinephenylglycine, leucine, and 1-aminobutyric acid, containing the N-terminal biotin residue were tested for their ability to inhibit proteolytic activity of selected serine proteases, and the control cysteine proteases. All tests were performed using a microplate reader. As enzyme substrates fluorescent peptides were used. The method to measure the activity of the compounds obtained are described below for each of the enzymes tested: human neutrophil elastase (HNE), porcine pancreatic elastase (PPE), subtilisin (Sub), cathepsin G (CatG), proteinase 3 (PR3), chymotrypsin (ChTry) trypsin (Try), papain (Pap) and cathepsin L (CatL). Measurement of the inhibitory activity was performed at different inhibitor concentrations ranging from 12.5 nM to 2000nm.
Measurement of inhibitory activity of compounds toward porcine pancreatic elastase (PPE).
(§2) The inhibitory activity assay is performed at 37°C in 0,01M Tris-HCl, 0,05% Triton X-100 buffer, pH 8,5, within 10 min after initial pre-incubation of the enzyme with inhibitor tested at 37°C for 10 min. The enzyme concentration is 60nM. Substrate used Me-Suc-Ala-Ala-Pro-Val-AMC at 100µM. Measurement is taken at an excitation wavelength of 350nm and 460nm emission.
(§3) The IC50 value is the concentration of inhibitor required to inhibit half of the enzyme activity after 10 minutes incubation.

subtilisin (Sub) = subtilisin (Sub) (Bacillus licheniformis, UniProt P00780); test: Inhibitory activity toward subtilisin, fluorogenic substrate, microplate reader; conditions: for Sub Kobs/[I]: 10 min pre-incubation at 37°C, pH 7,5, Me-Suc-Ala-Ala-Pro-Phe-AMC 5µM, NI = brak inhibicji (no inhibition)
subtilisin (Sub), sequence (P00780 106-379): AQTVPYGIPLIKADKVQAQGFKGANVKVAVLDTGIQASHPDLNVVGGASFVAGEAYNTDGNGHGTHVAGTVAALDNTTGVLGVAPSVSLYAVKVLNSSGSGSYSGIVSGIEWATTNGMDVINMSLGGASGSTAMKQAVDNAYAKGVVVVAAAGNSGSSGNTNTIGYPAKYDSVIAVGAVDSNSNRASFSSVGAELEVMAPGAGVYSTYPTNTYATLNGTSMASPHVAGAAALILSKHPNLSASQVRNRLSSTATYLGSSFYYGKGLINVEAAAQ
Experimental: as §1
Measurement of inhibitory activity of compounds toward subtilisin (Sub).
as §2, with “0,05M” for “0,01M”, “1M NaCl, 0,01%” for “0,05%”, “7,5,” for “8,5,”, “5nM.” for “60nM.”, “Me-Suc-Ala-Ala-Pro-Phe-AMC” for “Me-Suc-Ala-Ala-Pro-Val-AMC”, “5µM.” for “100µM.”
as §3

[2] = molecular target: T1, human neutrophil elastase (HNE) (Homo sapiens, UniProt P08246); test: Inhibitory activity toward human neutrophil elastase, fluorogenic substrate, microplate reader
T1 sequence (P08246 30-267): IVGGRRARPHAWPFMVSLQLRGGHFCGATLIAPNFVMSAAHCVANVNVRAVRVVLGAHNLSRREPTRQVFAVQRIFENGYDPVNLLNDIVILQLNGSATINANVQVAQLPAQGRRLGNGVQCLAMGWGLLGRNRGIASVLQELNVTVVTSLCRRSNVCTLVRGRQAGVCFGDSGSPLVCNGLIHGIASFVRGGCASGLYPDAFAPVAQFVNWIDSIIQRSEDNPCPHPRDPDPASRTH
Experimental: as §1
Measurement of inhibitory activity of compounds toward human neutrophil elastase (HNE).
The inhibitory activity assay is performed at 37°C in 0,01M HEPES, 0,5M NaCl, 0,03% Triton X-100 buffer, pH 7,5, within 10 min after initial pre-incubation of the enzyme with inhibitor tested at 37°C for 10 min. The enzyme concentration is 0,0025U/ml. Substrate used Me-Suc-Ala-Ala-Pro-Val-AFC at 25µM. Measurement is taken at an excitation wavelength of 400nm and 505nm emission.
as §3

proteinase 3 (PR3) = molecular target: T2, proteinase 3 (PR3) (Homo sapiens, UniProt P24158); test: Inhibitory activity toward proteinase 3, fluorogenic substrate, microplate reader
T2 sequence (P24158 28-248): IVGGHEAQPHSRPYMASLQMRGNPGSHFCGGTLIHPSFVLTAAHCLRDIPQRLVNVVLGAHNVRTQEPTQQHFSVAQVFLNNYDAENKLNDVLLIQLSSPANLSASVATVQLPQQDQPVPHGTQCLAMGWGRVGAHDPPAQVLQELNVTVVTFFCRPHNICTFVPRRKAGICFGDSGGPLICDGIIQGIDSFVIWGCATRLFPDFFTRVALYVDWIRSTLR
Experimental: as §1
Measurement of inhibitory activity of compounds toward proteinase 3(PR3).
(§4) The inhibitory activity assay is performed at 37°C in 0,1M Tric-HCl, 0,5M NaCl buffer, pH 7,5, within 10 min after initial pre-incubation of the enzyme with inhibitor tested at 37°C for 10 min. The enzyme concentration is 17nM. Substrate used Abz-Tyr-Tyr-Abu-Anb-NH2 at 30µM. Measurement is taken at an excitation wavelength of 325nm and 400nm emission.
as §3

cathepsin G (CatG) = molecular target: T3, cathepsin G (CatG) (Homo sapiens, UniProt P08311); test: Inhibitory activity toward cathepsin G, fluorogenic substrate, microplate reader
T3 sequence (P08311 21-244): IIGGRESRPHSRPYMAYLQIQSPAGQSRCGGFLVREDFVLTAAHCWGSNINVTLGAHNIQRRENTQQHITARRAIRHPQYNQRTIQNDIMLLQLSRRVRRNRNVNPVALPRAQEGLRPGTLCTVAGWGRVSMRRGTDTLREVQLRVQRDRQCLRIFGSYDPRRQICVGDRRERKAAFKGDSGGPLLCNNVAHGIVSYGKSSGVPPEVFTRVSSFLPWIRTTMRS
Experimental: as §1
Measurement of inhibitory activity of compounds toward cathepsin G (CatG).
as §4, with “100nM.” for “17nM.”, “MCA-Phe-Val-Thr-Gnf-Ser-Trp-Anb-NH2” for “Abz-Tyr-Tyr-Abu-Anb-NH2”, “2.5µM.” for “30µM.”
as §3

chymotrypsin (ChTry) = chymotrypsin (ChTry) (Bos taurus, UniProt P00766); test: Inhibitory activity toward chymotrypsin, fluorogenic substrate, microplate reader; conditions: 10 min pre-incubation at 37°C, pH 7,5, Suc-Ala-Ala-Pro-Phe-AMC 5µM; NI = brak inhibicji (no inhibition)
Experimental: as §1
Measurement of inhibitory activity of compounds toward […] (ChyTry).
as §4, with “HEPES,” for “Tric-HCl,”, “3nM.” for “17nM.”, “Suc-Ala-Ala-Pro-Phe-AMC” for “Abz-Tyr-Tyr-Abu-Anb-NH2”, “5µM.” for “30µM.”, “350nm” for “325nm”, “460nm” for “400nm”
as §3

[3] = 10 min pre-incubation at 37°C, pH 8,5, Me-Suc-Ala-Ala-Pro-Val-AMC 100µM, NI = brak inhibicji (no inhibition)
[4] = 10 min pre-incubation at 37°C, pH 7,5, Me-Suc-Ala-Ala-Pro-Val-AFC 25µM, NI = brak inhibicji (no inhibition)
[5] = read-out: Cat G IC50, 10 min pre-incubation at 37°C, pH 7,5, MCA-Phe-Val-Thr-Gnf-Ser-Trp-Anb-NH2 2.5µM, NI = brak inhibicji (no inhibition)
[6] = read-out: PPE IC50, 10 min pre-incubation at 37°C, pH 8,5, Me-Suc-Ala-Ala-Pro-Val-AMC 100µM, NI = brak inhibicji (no inhibition)
[7] = read-out: HNE IC50, 10 min pre-incubation at 37°C, pH 7,5, Me-Suc-Ala-Ala-Pro-Val-AFC 25µM, NI = brak inhibicji (no inhibition)
[8] = read-out: PR3 IC50, 10 min pre-incubation at 37°C, pH 7,5, Abz-Tyr-Tyr-Abu-Anb-NH2 30µM, NI = brak inhibicji (no inhibition)
[9] = 10 min pre-incubation at 37°C, pH 7,5, MCA-Phe-Val-Thr-Gnf-Ser-Trp-Anb-NH2 2.5µM, NI = brak inhibicji (no inhibition)

| Structure (SMILES) | IC50 [1] [nM] | PPE Kobs/[I] [1, 3] | IC50 (subtilisin (Sub)) [nM] | Sub Kobs/[I] (subtilisin (Sub)) | IC50 [2] [nM] | HNE Kobs/[I] [2, 4] | IC50 (proteinase 3 (PR3)) [nM] | PR3 Kobs/[I] (proteinase 3 (PR3); 10 min pre-incubation at 37°C, pH 7,5, Abz-Tyr-Tyr-Abu-Anb-NH2 30µM, NI = brak inhibicji (no inhibition)) | IC50 (cathepsin G (CatG); [5]) [nM] | IC50 [1, 6] [nM] | ChyTr Kobs/[I] (chymotrypsin (ChTry)) | IC50 [2, 7] [nM] | IC50 (proteinase 3 (PR3); [8]) [nM] | IC50 (cathepsin G (CatG)) [nM] | Cat G Kobs/[I] (cathepsin G (CatG); [9]) |
| --- | --- | --- | --- | --- | --- | --- | --- | --- | --- | --- | --- | --- | --- | --- | --- |
| CC(C)C(NC(=O)CCCCC1SCC2NC(=O)NC21)C(=O)N1CCCC1C(=O)NC(C(C)C)P(=O)(Oc1ccccc1)Oc1ccccc1 (centres unmarked) [Compound 2, diphenyl 2-methyl-1-(1-(3-methyl-2-(5-(2-oxohexahydro-1H-thieno[3,4-d]imidazol-4-yl)pentanamido)butanoyl)pyrrolidine-2-carboxamido)propylphosphonate] | 246 ± 30.5 | 4.7*10^3 M^-1S^-1 | 415 ± 17 | 2.8*10^3 M^-1S^-1 | 6.5 ± 0.3 | 1.8*10^5 M^-1S^-1 | 728 ± 44 | 3.2*10^3 M^-1S^-1 | > 5000 | – | – | – | – | – | – |
| CC(C)C(NC(=O)CCCCC1SCC2NC(=O)NC21)C(=O)N1CCCC1C(=O)NC(Cc1ccccc1)P(=O)(Oc1ccccc1)Oc1ccccc1 (centres unmarked) [Compound 3, diphenyl 1-(1-(3-methyl-2-(5-(2-oxohexahydro-1H-thieno[3,4-d]imidazol-4-yl)pentanamido)butanoyl)pyrrolidine-2-carboxamido)-2-phenylethylphosphonate] | – | – | 11.6 ± 0.2 | 1.0*10^5 M^-1S^-1 | – | – | – | – | – | > 5000 | 5.6*10^4 M^-1S^-1 | > 5000 | > 5000 | 258 ± 33 | 4.5*10^3 M^-1S^-1 |
| CSc1ccc(OP(=O)(Oc2ccc(SC)cc2)C(C)NC(=O)C2CCCN2C(=O)C(NC(=O)CCCCC2SCC3NC(=O)NC32)C(C)C)cc1 (centres unmarked) [Compound 4, bis(4-(methylthio)phenyl) 1-(1-(3-methyl-2-(5-(2-oxohexahydro-1H-thieno[3,4-d]imidazol-4-yl)pentanamido)butanoyl)pyrrolidine-2-carboxamido)ethylphosphonate] | 136 ± 7.5 | 8.5*10^3 M^-1S^-1 | 40.2 ± 0.01 | 2.9*10^4 M^-1S^-1 | 5.55 ± 0.25 | 2.1*10^5 M^-1S^-1 | – | – | > 5000 | – | – | – | > 5000 | – | – |
| COc1ccc(OP(=O)(Oc2ccc(OC)cc2)C(CC(C)C)NC(=O)C2CCCN2C(=O)C(NC(=O)CCCCC2SCC3NC(=O)NC32)C(C)C)cc1 (centres unmarked) [Compound 5, bis(4-methoxyphenyl) (3-methyl-1-(1-(3-methyl-2-(5-(2-oxohexahydro-1H-thieno[3,4-d]imidazol-4-yl)pentanamido)butanoyl)pyrrolidine-2-carboxamido)butyl)phosphonate] | 5000 | 2*10^2 M^-1S^-1 | 47.9 ± 0.57 | 2.4*10^4 M^-1S^-1 | – | – | – | – | > 5000 | – | 7.4*10^3 M^-1S^-1 | > 5000 | > 5000 | – | – |
| CC(C)C(NC(=O)CCC(=O)NCCCCCNC(=O)CCCCC1SCC2NC(=O)NC21)C(=O)N1CCCC1C(=O)NC(Cc1ccccc1)P(=O)(Oc1ccccc1)Oc1ccccc1 (centres unmarked) [Compound 10, diphenyl (1-(1-(3-methyl-2-(4-oxo-4-((5-(5-(2-oxohexahydro-1H-thieno[3,4-d]imidazol-4-yl)pentanamido)pentyl)amino)butanamido)butanoyl)pyrrolidine-2-carboxamido)-2-phenylethyl)phosphonate] | – | – | 39.9 ± 4.6 | 2.9*10^4 M^-1S^-1 | – | – | – | – | – | > 5000 | 7.0*10^4 M^-1S^-1 | > 5000 | > 5000 | 300 ± 0.5 | 3.8*10^3 M^-1S^-1 |
